Patent US6286513A, “Methods for treating superficial bladder carcinoma” (priority 1998, dated 2001)

Experiments:
[1] = system: large tumors, i.e. tumors >5 cm; test: Recurrence in patients with large tumors; assay type: in vivo; details: high efficacy therapy; large tumors >5 cm
[2] = system: high grade tumors (grade III); test: Recurrence in patients with high grade tumors (Example 6); assay type: in vivo
Protocol: Twenty-seven patients from whom high grade tumors (i.e., grade III)had been removed were treated weekly for six weeks with the high efficacy therapy as described above in example 1 and 23 patients from whom high grade tumors had been removed were treated weekly for six weeks with the customary experimental therapy as described in example 1. All patients were evaluated as described in example 1. The median time to recurrence was not reached for patients treated by the high efficacy treatment versus 179 days for patients treated by the customary experimental treatment. The projected 5-year recurrence free value is 52% for the patients receiving the high efficacy treatment and 19% for the customary experimental treatment.

[3] = system: multifocal Ta, T1, Tis tumors; test: Recurrence in patients with multifocal tumors (Example 3, FIG. 9); assay type: in vivo
Protocol: Sixty-five of patients from whom 3 or more Ta, T1,or Tis tumors had been removed were treated weekly for six weeks with the high efficacy therapy as described above in example 1 and 52 patients from whom 3 or more Ta, T1, or Tis tumors had been removed were treated weekly for six weeks with standard MMC intravsical therapy as described in example 1. All patients received the follow-up described in example 1.

T1 tumors = test: Recurrence in patients with T1 tumors (Kaplan-Meier); assay type: in vivo
Excerpt: (§1) The Kaplan-Meier Curve is a conventional tool used to project treatment outcome such as the % of patients who remain alive or free of disease at a certain time interval. (Martin Bland, Introduction to Medical Statistics (1994) Oxford Press). The Kaplan Meier Curve was used to compare the customary experimental therapy to the high efficacy therapy. When compared to the customary experimental therapy, the high efficacy therapy increased the percentage of all patients who are projected to remain recurrence-freefor longer than 5 years from 20 to 41%. The improvement was similar for patients with T1 tumors which were growing in the deeper bladder tissue layers (i.e. increase from 16% to 44%) and for patients with Ta tumors which were growing in the urothelial surface of the bladder (i.e. increase from 20% to 37%).

aneuploid tumors = test: Recurrence in patients with aneuploid tumors; assay type: in vivo; details: high efficacy therapy
[4] = system: low grade tumors (grade I and grade II); test: Recurrence in patients with low grade tumors (Example 5); assay type: in vivo
Protocol: Eighty-one patients from whom low grade tumors (i.e., grade I and grade II) had been removed were treated weekly for six weeks with the high efficacy therapy as described above in example 1 and 64 patients from whom low grade tumors were had been removed were treated weekly for six weeks with the customary experimental therapy as described in example 1. All patients were evaluated as described in example 1. The median time to recurrence was 637 days for patients treated by the high efficacy treatment versus 339 days for patients treated by the customary experimental treatment. The projected 5-year recurrence free value is 35% for the high efficacy treatment and 21% for the customary experimental treatment.

[5] = in vitro, previous results; cited from earlier work
[6] = system: recurrent Ta, T1 or Tis tumors; test: Recurrence in patients with recurrent tumors (Example 2, FIG. 12); assay type: in vivo; details: for median time to recurrence / projected 5-year tumor recurrence free rate: recurrent tumors
Protocol: Seventy-seven patients from whom recurrent Ta, T1 or Tis tumors had been resected were treated weekly for six weeks with the high efficacy therapy as described above in example 1 and 68 patients from whom recurrent Ta, T1 or Tis tumors had been resected were treated by the customary experimental therapy as described in example 1. All patients had undergone at least one previous round of therapy, to several previous rounds of resection plus chemotherapy consisting of treatment with BCG, MMC, doxorubicin and doxorubicin and cisplatin. For example, 44 patients treated with the high efficacy treatment and 42 patients treated with the customary experimental method had at least two tumor resections. Thirty-eight patients in each of the two treatment arms fad received previous tumor resections plus at least one series of adjuvant chemotherapy. All patients were evaluated as described in example 1.

Ta tumors = test: Recurrence in patients with Ta tumors (Kaplan-Meier); assay type: in vivo
Excerpt: as §1

[7] = customary experimental treatment

## COC12C(COC(N)=O)C3=C(C(=O)C(C)=C(N)C3=O)N1CC1NC12 (stereo not drawn) [MMC]
[1]
  delaying and preventing tumor recurrence, vs customary therapy: more effective
[2]; [7]
  median time to recurrence: 179 days
  projected 5-year recurrence free value: 19%
[2]; high efficacy treatment
  median time to recurrence: not reached
  projected 5-year recurrence free value: 52%
[3]; customary experimental therapy, multifocal tumors
  projected 5-year recurrence free rate: 17%
[3]; high efficacy therapy, multifocal tumors
  projected 5-year recurrence free rate: 32%
[3]; high efficacy therapy, multiple tumors
  delaying and preventing tumor recurrence, vs customary therapy: more effective
[3]; standard treatment (so in the source), multifocal tumors
  median time to tumor recurrence: 488 days
T1 tumors; customary experimental therapy
  percentage of patients projected to remain recurrence-free for longer than 5 years: 16%
T1 tumors; high efficacy therapy
  percentage of patients projected to remain recurrence-free for longer than 5 years: 44%
Aneuploid tumors
  delaying and preventing tumor recurrence, vs customary therapy: more effective
[4]; [7]
  median time to recurrence: 339 days
  projected 5-year recurrence free value: 21%
[4]; high efficacy treatment
  median time to recurrence: 637 days
  projected 5-year recurrence free value: 35%
[5]
  relative importance of drug concentration and treatment duration: the drug concentration is more important than treatment duration
[6]; customary experimental therapy
  median time to recurrence: 339 days
  projected 5-year tumor recurrence free rate: 26%
[6]; high efficacy therapy
  median time to recurrence: 754 days
  projected 5-year tumor recurrence free rate: 39%
[6]; high efficacy therapy, recurrent tumors despite other adjuvant therapies
  delaying and preventing tumor recurrence, vs customary therapy: more effective
Ta tumors; customary experimental therapy
  percentage of patients projected to remain recurrence-free for longer than 5 years: 20%
Ta tumors; high efficacy therapy
  percentage of patients projected to remain recurrence-free for longer than 5 years: 37%
